Source: ChEMBL document CHEMBL1139988, “Discovery of structurally diverse HIV-1 integrase inhibitors based on a chalcone pharmacophore” (Bioorg Med Chem, 2007)
pIC50: −log10 of the molar value. Where “and” joins values, the source holds several entries; their conditions need not be identical. Equal values may be shown once.

Columns and labels:
[1] = molecular target: T1, Human immunodeficiency virus type 1 integrase (Human immunodeficiency virus 1, UniProt Q7ZJM1); test: Inhibition of HIV1 integrase strand transfer activity
T1 sequence (Q7ZJM1 whole entry): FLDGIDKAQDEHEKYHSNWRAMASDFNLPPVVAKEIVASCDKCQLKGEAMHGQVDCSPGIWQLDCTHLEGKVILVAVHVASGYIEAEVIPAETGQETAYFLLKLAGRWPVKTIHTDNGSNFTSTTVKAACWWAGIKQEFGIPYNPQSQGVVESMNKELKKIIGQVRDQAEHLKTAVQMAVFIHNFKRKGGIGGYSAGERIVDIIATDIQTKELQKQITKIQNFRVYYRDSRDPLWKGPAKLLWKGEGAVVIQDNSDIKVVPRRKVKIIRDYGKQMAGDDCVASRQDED

[2] = molecular target: T1, Human immunodeficiency virus type 1 integrase; test: Inhibition of HIV1 integrase 3'-end processing activity
[3] = molecular target: T1, Human immunodeficiency virus type 1 integrase; test: Inhibition of HIV1 integrase 3'-end processing activity in presence of magnesium cofactor
[4] = molecular target: T1, Human immunodeficiency virus type 1 integrase; test: Inhibition of HIV1 integrase strand transfer activity in presence of magnesium cofactor

| Structure (SMILES) | pIC50 [1] | pIC50 [2] | pIC50 [3] | pIC50 [4] |
| --- | --- | --- | --- | --- |
| Oc1ccc(Br)cc1/C=N/Nc1nc2nonc2nc1Nc1ccc(F)cc1 | 4.96 | 4.80 | – | – |
| CCCn1c(=O)c(C(=O)NNC(=O)COc2ccccc2)c(O)c2ccccc21 | < 4.00 | < 4.00 | – | – |
| CCc1nc2sc3c(c2c2nnc(SCC(=O)NNC(=O)c4ccc(OC)cc4)n12)CCCC3 | 4.00 | < 4.00 | – | – |
| O=C(N/N=C/c1cccc([N+](=O)[O-])c1)c1cccc(C(=O)N/N=C/c2cccc([N+](=O)[O-])c2)n1 | 3.89 | 3.82 | – | – |
| O=C(O)c1ccc(NCN2C(=O)c3ccc([N+](=O)[O-])cc3C2=O)cc1 | 3.74 and 3.72 | 3.74 and 3.86 | – | – |
| CCCOc1ccc(/C=N/NC2=NC(c3ccccc3O)CC(c3ccccc3)=N2)c(O)c1 (configuration not stated) | 4.22 | 4.19 | – | – |
| O=C(NNC(=O)c1c(O)c2ccccc2[nH]c1=O)c1ccccc1 | 4.55 | 4.00 | – | – |
| O=C1Nc2ccccc2/C1=N\NC(=O)c1ccc(O)cc1O | 4.44 | < 4.00 | – | – |
| O=C(CSc1nnc(-c2ccncc2)[nH]1)c1ccc(O)cc1O | 4.60 | 4.04 | – | – |
| COc1ccc(Nc2nc(NCc3ccco3)nc(N/N=C/c3ccc(Br)cc3)n2)cc1 | 4.89 | 4.74 | – | – |
| O=C(NC1CCCCC1)C(c1ccco1)N(C(=O)Cn1nnc2ccccc21)c1ccc(S(=O)(=O)NCC2CCCO2)cc1 (configuration not stated) | < 4.00 | < 4.00 | – | – |
| COc1ccc(/C=C/C(=O)c2ccc(O)cc2O)cc1 | 4.41 | < 4.00 | – | – |
| O=C(/C=C/c1ccc2c(c1)OCO2)c1ccccc1O | < 4.00 | < 4.00 | – | – |
| COc1cc(C(=O)/C=C/c2ccc3c(c2)OCO3)ccc1O | < 4.00 | < 4.00 | – | – |
| O=c1nc2n(-c3ccc(Cl)cc3)c3ccc([N+](=O)[O-])cc3cc-2c(=O)[nH]1 | 4.31 | 4.11 | – | – |
| O=C(NNC(=O)c1c(O)c2ccccc2[nH]c1=O)c1ccccc1F | 4.52 | 4.28 | – | – |
| COc1ccc(NC(=O)c2cccc(S(=O)(=O)Nc3ccc(C(=O)O)cc3)c2)cc1 | 4.15 | 4.10 | – | – |
| O=C(NNC(=O)c1c(O)c2ccccc2[nH]c1=O)c1cccc([N+](=O)[O-])c1 | 6.00 | 5.48 | – | – |
| CNc1nc(N/N=C/c2ccc(-c3ccc([N+](=O)[O-])cc3OC)o2)nc(Nc2ccccc2)n1 | 4.43 | 4.09 | – | – |
| COc1cc(C(=O)/C=C/c2ccc3c(c2)OCO3)cc(OC)c1OC | < 4.00 | < 4.00 | – | – |
| CCCCCCc1nc2ccccc2c(=O)n1NC(=O)c1c(O)c2ccccc2n(CC)c1=O | < 4.00 | < 4.00 | – | – |
| CCn1c(=O)c(C(=O)NNC(=O)c2ccccc2[N+](=O)[O-])c(O)c2ccccc21 | 4.52 | 4.44 | – | – |
| COc1ccc(C(=O)Nc2ccccc2C(=O)NC(C(=O)NNC(=O)c2ccccc2O)C(C)C)cc1 (configuration not stated) | 4.80 | 4.72 | – | – |
| O=C(COc1ccc2ccccc2c1)NNC(=O)c1cc2ccccc2cc1O | 4.92 | 4.74 | – | – |
| O=C(/C=C/c1cccc(NC(=O)c2cccs2)c1)c1ccccc1 | 4.05 | < 4.00 | – | – |
| O=C(Oc1ccc(/C=N/Nc2nnc3c(n2)[nH]c2ccccc23)cc1)c1ccc(Br)cc1 | 3.10 | 3.07 | – | – |
| COc1cc(OC)c(C(=O)/C=C/c2cccc([N+](=O)[O-])c2)cc1OC | < 4.00 | < 4.00 | – | – |

| Structure (SMILES) | pIC50 [1] | pIC50 [2] | pIC50 [3] | pIC50 [4] |
| --- | --- | --- | --- | --- |
| CCCc1nc2ccccc2c(=O)n1NC(=O)c1c(O)c2cccc3c2n(c1=O)CCC3 | 4.24 | 4.19 | – | – |
| CCOc1cc(Br)cc(/C=N/c2ncccc2O)c1O | 4.09 | 3.84 | – | – |
| COc1cccc(/C=C/C(=O)c2ccccc2)c1O | 5.70 | 5.70 | – | – |
| O=C(N/N=C/c1c[nH]c2ccccc12)c1ccc(O)c(O)c1 | 3.34 | < 3.00 | – | – |
| CCCn1c(=O)c(C(=O)NNC(=O)CC(=O)OCC)c(O)c2ccccc21 | 4.32 | < 4.00 | – | – |
| COc1cc([N+](=O)[O-])cc(/C=N/Nc2nc(Nc3ccccc3)nc(Nc3ccccc3)n2)c1O | 4.54 | 4.54 | – | – |
| O=C(CSc1nc(O)c2ccccc2n1)c1ccc(O)c(O)c1 | 4.11 | 4.06 | – | – |
| O=C(O)c1cc(-c2ccc(/C=N/Nc3nc4nonc4nc3Nc3ccccc3F)o2)ccc1Cl | 5.40 | 5.15 | – | – |
| CCn1c(=O)c(C(=O)NNC(=O)c2cccc([N+](=O)[O-])c2)c(O)c2ccccc21 | 4.77 | 4.43 | – | – |
| Cn1c(SCC(=O)NNC(=O)c2cccc(O)c2)nc2sc3c(c2c1=O)CCC3 | 4.00 | 4.06 | – | – |
| CCn1c(=O)c(C(=O)NNC(=O)c2ccc([N+](=O)[O-])cc2)c(O)c2ccccc21 | 4.70 | 4.49 | – | – |
| Cc1nc(SCC(=O)c2ccc(O)c(O)c2)c(C#N)c(CC(C)C)c1C(N)=O | 4.07 | < 4.00 | – | – |
| Cc1ccc(NCC(=O)N/N=C/c2cccc(OC(=O)c3ccc4c(c3)OCO4)c2)cc1 | 3.14 | 3.17 | – | – |
| Nc1ccc(C(=O)CC(=O)Nc2cc(C(=O)O)cc(C(=O)O)c2)cc1 | 4.37 | 4.39 | – | – |
| O=C(CCC(=O)Nc1ccc([N+](=O)[O-])c(C(F)(F)F)c1)Nc1ccc([N+](=O)[O-])c(C(F)(F)F)c1 | 3.68 | 3.71 | – | – |
| O=C(O)COc1ccccc1/C=N/Nc1nncc(-c2ccccc2)n1 | 3.65 | 3.67 | – | – |
| Oc1ccc(Cl)cc1/C=C/c1ccc2cccc(O)c2n1 | 3.66 | 3.71 | – | – |
| O=S(=O)(Nc1ccc(Br)cc1)c1ccc(Sc2ccc(S(=O)(=O)Nc3ccc(Br)cc3)cc2)cc1 | 3.60 | 3.79 | – | – |
| CCN(CC)c1nc(N/N=C/c2ccc([N+](=O)[O-])cc2)nc(Nc2ccc(C)c(Cl)c2)n1 | 3.70 | 3.72 | – | – |
| COc1ccc(NC(=O)CSc2nc(-c3ccncc3)nn2CC(=O)NCc2ccco2)cc1 | < 4.00 | < 4.00 | – | – |
| COc1cccc(C(=O)NNC(=O)c2ccc3ccccc3c2O)c1 | 4.48 | 4.38 | – | – |
| O=C(/C=C/c1ccc2c(c1)OCO2)c1ccccc1 | < 4.00 | < 4.00 | – | – |
| O=C(/C=C/c1ccccc1O)c1ccc(O)cc1O | 4.33 | 4.28 | – | – |
| O=C(CSc1nc2ccccc2c(=O)n1CC1CCCO1)NNC(=O)c1ccccc1O (configuration not stated) | 4.22 | 4.07 | – | – |
| CCc1cccc2c(SCC(=O)NNC(=O)c3ccccc3[N+](=O)[O-])nc(-c3ccc(F)cc3)nc12 | 4.00 | < 4.00 | – | – |
| O=C(NNC(=O)c1c(O)c2ccccc2[nH]c1=O)c1ccccc1[N+](=O)[O-] | 4.34 | 4.27 | – | – |
| Oc1ccc(-c2csc(Nc3ncccn3)n2)cc1O | 4.08 | 3.52 | – | – |

| Structure (SMILES) | pIC50 [1] | pIC50 [2] | pIC50 [3] | pIC50 [4] |
| --- | --- | --- | --- | --- |
| O=C(Nc1ccccc1C(=O)O)c1ccc(C(=O)Nc2ccccc2C(=O)O)cc1 | 4.49 | 4.17 | – | – |
| CCCC(=O)NC(c1ccc(OC)c(OC)c1)c1cc(Cl)c2cccnc2c1O (configuration not stated) | 4.05 | < 4.00 | – | – |
| O=C(CSc1nc(SCC(=O)NCc2ccco2)nc(SCC(=O)NCc2ccco2)n1)NCc1ccco1 | 4.92 | 4.55 | – | – |
| Nc1cc(O)nc(SCC(=O)c2ccc(O)c(O)c2)n1 | 4.05 | 3.56 | – | – |
| O=C(COc1ccc2ccccc2c1)NNC(=O)c1ccccc1O | 4.74 | 4.54 | – | – |
| COc1ccc(OC)c(C(=O)/C=C/c2ccc3c(c2)OCO3)c1 | < 4.00 | < 4.00 | – | – |
| O=C(/C=C/c1ccccc1OC(=O)c1cc2ccccc2oc1=O)c1ccccc1 | 4.04 | < 4.00 | – | – |
| O=C(N/N=C/c1ccc(O)c(O)c1)c1ccccc1O | 4.59 | 4.15 | – | – |
| CCOc1ccc(-c2c(C#N)c(N)nc(SCC(=O)c3cc4cc(Br)cc(Br)c4oc3=O)c2C#N)cc1 | 5.40 | 5.22 | 4.77 | 5.02 |
| O=C(Nc1nccs1)/C(O)=C/C(=O)c1ccc(Cl)cc1 | 4.15 | 4.02 | – | – |
| Cc1cc(O)nc(SCC(=O)c2ccc(O)c(O)c2)n1 | 3.89 | 3.51 | – | – |
| COc1cc(C(NC(=O)c2ccco2)NC(=O)c2ccco2)ccc1OCc1ccccc1 | < 4.00 | < 4.00 | – | – |
| O=C(CNC(=O)c1ccc(Cl)cc1)OCC(=O)c1ccc([N+](=O)[O-])cc1 | 3.27 | 3.24 | – | – |
| COc1ccc(C(=O)NNC(=O)c2cc3ccccc3cc2O)cc1 | 4.74 | 4.31 | – | – |
| CCCn1c(=O)c(C(=O)NNC(=O)c2ccccc2)c(O)c2ccccc21 | 4.18 | 4.00 | – | – |
| CC(=O)Nc1ccc2c(c1)OCCOCCOc1cc(NC(C)=O)ccc1OCCOCCO2 | 3.17 | 3.17 | – | – |
| Cn1c(=O)[nH]c(=O)c2c1nc(SCC(O)CCl)n2CC(O)COc1ccc(Cl)cc1 (configuration not stated) | < 4.00 | < 4.00 | – | – |
| NC(=O)NN=C1c2cc(S(=O)(=O)NCc3ccco3)ccc2-c2ccc(S(=O)(=O)NCc3ccco3)cc21 | 4.70 | 4.04 | – | – |
| O=C(Nc1cccc(O)c1)c1cc(C(=O)Nc2cccc(O)c2)cc(N2C(=O)c3ccccc3C2=O)c1 | 4.00 | 4.00 | – | – |
| O=C1Nc2ccccc2/C1=N/NC(=O)c1ccccc1O | 4.24 | < 4.00 | – | – |
| O=[N+]([O-])c1cc(Br)cc(/C=N/Nc2nc(Nc3ccccc3)nc(Nc3ccccc3)n2)c1O | 6.22 | 5.72 | – | – |
| Cc1ccc(O)c(/C=N/Nc2nc3c(c(=O)[nH]c(=O)n3C)n2Cc2ccccc2)c1 | < 4.00 | < 4.00 | – | – |
| Cc1ccc(NC(=O)CN2C(=O)/C(=N\NC(=O)c3ccc4ccccc4n3)c3ccccc32)cc1 | 4.08 | 4.08 | – | – |
| Cc1cc(C)cc(OCC(=O)NNC(=O)c2cc3ccccc3oc2=O)c1 | 4.14 | 4.13 | – | – |
| Cc1ccc(NP(=O)(Oc2ccccc2)Oc2ccccc2)cc1 | < 3.00 | < 3.00 | – | – |
| CCCn1c(N/N=C/c2cc(Br)ccc2O)nc2c1c(=O)[nH]c(=O)n2C | 4.10 | < 4.00 | – | – |
